Measured values: patent US20120131849A1, “METHOD FOR STORAGE OF SEEDS” (priority 2009, published 2012)

Test system: seeds of Eustoma grandiflorum “F1 Mellow Violet”
Test: Germination rate test after storage of seeds in oily substance
Assay type: in vivo
Experimental: After a predetermined amount of culture soil (Metro-Mix350, manufactured by Scotts) was filled into a cell tray, 100 seeds were sown, and water sprinkling was performed as necessary. With regard to the light conditions, suitable conditions for each seed type were adopted. After sowing, the number of germinated seeds was measured over time, and the number of germinated seeds with respect to the 100 seeds was calculated as a germination rate (%).
The germination rate (%) obtained 10 days after sowing was particularly evaluated as germination vigor (%). The germination vigor is a measure of germination speed or whether germination is uniform, and higher germination vigor values mean faster and more uniform germination. In the case of seeds of a plant that takes long time to germinate, the number of days after sowing was changed as appropriate to obtain the germination vigor.
The germination rate (%) obtained 14 days after sowing was particularly evaluated as the final germination rate (%). In the case of seeds of a plant that takes long time to germinate, the number of days after sowing was changed as appropriate to obtain the final germination rate. […]
First, 0.01 g of seeds of Eustoma grandiflorum “F1 Mellow Violet” was placed in each of 1.5 mL test tubes. Subsequently, 1.5 mL of a medium-chain triglyceride was gently poured into each test tube, which was then capped. The seeds were completely immersed in the medium-chain triglyceride. The test tubes were stored at 4° C. or 25° C. in darkness for 6 months, 18 months, or 36 months, and afterward, the seeds were removed from the test tubes, and a germination rate test was performed. A germination rate test for Eustoma grandiflorum “F1 Mellow Violet” seeds immediately after purchasing was also performed at the same time.

| Structure (SMILES) | Germination rate (%) 10 days (germination vigor) (Stored at 4° C., 6 months) | Germination rate (%) 14 days (final germination rate) (Stored at 4° C., 6 months) | Germination rate (%) 10 days (germination vigor) (Stored at 4° C., 18 months) | Germination rate (%) 14 days (final germination rate) (Stored at 4° C., 18 months) | Germination rate (%) 10 days (germination vigor) (Stored at 4° C., 36 months) | Germination rate (%) 14 days (final germination rate) (Stored at 4° C., 36 months) | Germination rate (%) 10 days (germination vigor) (Stored at 25° C., 6 months) | Germination rate (%) 14 days (final germination rate) (Stored at 25° C., 6 months) | Germination rate (%) 10 days (germination vigor) (Stored at 25° C., 18 months) | Germination rate (%) 14 days (final germination rate) (Stored at 25° C., 18 months) | Germination rate (%) 10 days (germination vigor) (Stored at 25° C., 36 months) | Germination rate (%) 14 days (final germination rate) (Stored at 25° C., 36 months) |
| --- | --- | --- | --- | --- | --- | --- | --- | --- | --- | --- | --- | --- |
| CCCC(=O)O [Example 10, butanoic acid] | 94% | 94% | 95% | 95% | 95% | 96% | 95% | 96% | 93% | 96% | 92% | 95% |
| CCCCCCCC(=O)O [Example 11, octanoic acid] | 93% | 93% | 96% | 96% | 95% | 95% | 93% | 93% | 91% | 93% | 90% | 93% |
| CCCCCCCCCCCO [Example 17, undecyl alcohol] | 94% | 96% | 94% | 94% | 90% | 92% | 94% | 95% | 95% | 94% | 89% | 92% |
